Measured values as given in patent US8436031B2 (priority 2004, dated 2013).

biological target: MarA (Escherichia coli, UniProt P0ACH5); assay: Selective marker (ccdB) under MarA-activated promoter; cell survival under MarA expression (Example 2); type: cell-based; parameters: key: *: good inhibition of MarA; **: very good inhibition of MarA; settings: inhibition of MarA; cell survival under conditions of MarA expression
Description: In this example, the expression of a selective marker (e.g., ccdB) is put under the direct control of a promoter activated by MarA (e.g., inaA, galT, or micF). In the absence of MarA, the expression of the selective marker is silent and cells survive. Synthesis of MarA from an inducible plasmid in a bacterial or yeast cell leads to the activation of the inaA promoter, expression of ccdB, and subsequently results in cell death. Compounds that inhibit MarA are those that permit cell survival under conditions of MarA expression. In Table 4, * indicates good inhibition of MarA and ** indicates very good inhibition of MarA.

Chain of MarA (P0ACH5 whole entry, looked up): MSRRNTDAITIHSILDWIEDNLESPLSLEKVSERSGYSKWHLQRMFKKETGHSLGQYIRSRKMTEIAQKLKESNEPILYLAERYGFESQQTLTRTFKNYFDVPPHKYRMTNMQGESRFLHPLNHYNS

SMILES | MarA inhibition score (cell survival)
CSc1nnc2c(n1)OC(c1ccc(I)o1)Nc1ccccc1-2 (stereo not shown) [A, 6-(5-Iodo-furan-2-yl)-3-methylsulfanyl-6,7-dihydro-5-oxa-1,2,4,7-tetraaza-dibenzo[a,c]cycloheptene] | **
N#Cc1c(-c2ccc3c(c2)OCO3)c(C#N)c2nc3ccccc3n2c1N [AB, 1-Amino-3-benzo[1,3]dioxol-5-yl-benzo[4,5]imidazo[1,2-a]pyridine-2,4-dicarbonitrile] | **
COC(=O)c1ccccc1NC(=O)CSc1nnc(-c2ccco2)n1-c1ccccc1 [AC, 2-[2-(5-Furan-2-yl-4-phenyl-4H-[1,2,4]triazol-3-ylsulfanyl)-acetylamino]-benzoic acid methyl ester] | *
CSc1cccc(NC(=O)CSc2nnc(-c3ccc4nonc4c3)n2C)c1 [AE, 2-(5-Benzo[1,2,5]oxadiazol-5-yl-4-methyl-4H-[1,2,4]triazol-3-ylsulfanyl)-N-(3-methylsulfanyl-phenyl)-acetamide] | *
O=C1C(=C2NC(c3ccccn3)C3C(=O)N(c4ccccc4)C(=O)C23)C(=O)c2ccccc21 (stereo not shown) [AF, 4-(1,3-Dioxo-indan-2-ylidene)-2-phenyl-6-pyridin-2-yl-tetrahydro-pyrrolo[3,4-c]pyrrole-1,3-dione] | **
O=[N+]([O-])c1ccc2nc(-c3ccccc3)n(OCc3cccc(C(F)(F)F)c3)c2c1 [AG, 6-Nitro-2-phenyl-1-(3-trifluoromethyl-benzyloxy)-1H-benzoimidazole] | **
O=C(O)COn1c(-c2ccccc2)nc2ccc([N+](=O)[O-])cc21 [AH, (6-Nitro-2-phenyl-benzoimidazol-1-yloxy)-acetic acid] | **
O=[N+]([O-])c1ccc2nc(-c3ccccc3)n(OCc3ccccc3)c2c1 [AI, 1-Benzyloxy-6-nitro-2-phenyl-1H-benzoimidazole] | **
Cc1ccc(COn2c(-c3ccccc3)nc3ccc([N+](=O)[O-])cc32)cc1 [AJ, 1-(4-Methyl-benzyloxy)-6-nitro-2-phenyl-1H-benzoimidazole] | *
Cn1c(=O)c2c3oc(-c4ccc([N+](=O)[O-])cc4)nc3c(=O)n(-c3ccccc3)c2n(C)c1=O [AK, 6,8-Dimethyl-2-(4-nitro-phenyl)-5-phenyl-5H,6H-1-oxa-3,5,6,8-tetraaza-cyclopenta[a]naphthalene-4,7,9-trione] | **
Cc1ccc(-c2nc3c(=O)n(-c4ccccc4)c4c(c(=O)n(C)c(=O)n4C)c3o2)cc1 [AL, 6,8-Dimethyl-5-phenyl-2-p-tolyl-5H,6H-1-oxa-3,5,6,8-tetraaza-cyclopenta[a]naphthalene-4,7,9-trione] | *
O=c1/c(=C/c2cn(-c3ccccc3)nc2-c2ccc(F)cc2)sc2nc3ccccc3n12 [AM, 2-[3-(4-Fluoro-phenyl)-1-phenyl-1H-pyrazol-4-ylmethylene]-benzo[4,5]imidazo[2,1-b]thiazol-3-one] | **
C=Cc1nc2s/c(=C\c3cn(-c4ccccc4)nc3-c3ccc(F)cc3)c(=O)n2c1C [AO, 2-[3-(4-Fluoro-phenyl)-1-phenyl-1H-pyrazol-4-ylmethylene]-5-methyl-6-vinyl-imidazo[2,1-b]thiazol-3-one] | **
CN(C)c1ccc(-c2cc(=O)c3ccccc3o2)cc1 [AW, 2-[4-(dimethylamino)phenyl]-4H-chromen-4-one] | **
c1ccc(COn2c(-c3ccccc3)nc3ncccc32)cc1 [AX, 1-(benzyloxy)-2-phenyl-1H-imidazo[4,5-b]pyridine] | **
c1ccc(CSc2ncc(-c3nnnn3-c3ccccc3)c(-c3ccccc3)n2)cc1 [AY, 2-(benzylthio)-4-phenyl-5-(1-phenyl-1H-1,2,3,4-tetraazol-5-yl)pyrimidine] | **

SMILES | MarA inhibition score (cell survival)
O=c1cc(-c2ccccc2)oc2ccc(F)cc12 [AZ, 6-fluoro-2-phenyl-4H-chromen-4-one] | **
CCOc1ccc(C2Nc3ccccc3-c3nnc(SC)nc3O2)cc1 (stereo not shown) [B, 6-(4-Ethoxy-phenyl)-3-methylsulfanyl-6,7-dihydro-5-oxa-1,2,4,7-tetraaza-dibenzo[a,c]cycloheptene] | *
COc1ccc2c(=O)cc(-c3ccccc3)oc2c1 [BA, 7-methoxy-2-phenyl-4H-chromen-4-one] | *
O=C1C(=C2NC(c3ccccn3)C3C(=O)N(c4ccccc4)C(=O)C23)C(=O)c2ccccc21 (stereo not shown) [BB, 4-(1,3-dioxo-1,3-dihydro-2H-inden-2-yliden)-2-phenyl-6-(2-pyridinyl)tetrahydro pyrrolo[3,4-c]pyrrole-1,3(2H,3aH)-dione] | *
CCOC(=O)C(C(N)=O)C1(O)OC(c2ccc(C)cc2)=CC1=O (stereo not shown) [BC, 2-(2-Hydroxy-3-oxo-5-p-tolyl-2,3-dihydro-furan-2-yl)-malonamic acid ethyl ester] | *
O=C(O)COn1c(-c2ccccc2)nc2ccc([N+](=O)[O-])cc21 [BD, 2-[(6-nitro-2-phenyl-1H-1,3-benzimidazol-1-yl)oxy]acetic acid] | *
O=c1cc(-c2ccc(F)cc2)oc2ccccc12 [BE, 2-(4-fluorophenyl)-4H-chromen-4-one] | *
COn1c(-c2ccc(C)cc2)nc2ncccc21 [BF, 1-methoxy-2-(4-methylphenyl)-1H-imidazo[4,5-b]pyridine] | *
O=c1cc(-c2ccc(O)cc2)oc2ccccc12 [BG, 2-(4-hydroxyphenyl)-4H-chromen-4-one] | *
CSc1nnc2c(n1)OC(c1ccc([N+](=O)[O-])o1)Nc1ccccc1-2 (stereo not shown) [C, 3-Methylsulfanyl-6-(5-nitro-furan-2-yl)-6,7-dihydro-5-oxa-1,2,4,7-tetraaza-dibenzo[a,c]cycloheptene] | *
CSc1nnc2c(n1)OC(c1ccc(-c3ccc([N+](=O)[O-])cc3)o1)Nc1ccccc1-2 (stereo not shown) [D, 3-Methylsulfanyl-6-[5-(4-nitro-phenyl)-furan-2-yl]-6,7-dihydro-5-oxa-1,2,4,7-tetraaza-dibenzo[a,c]cycloheptene] | *
CCSc1nnc2c(n1)OC(c1ccc(O)c(O)c1)Nc1ccccc1-2 (stereo not shown) [E, 4-(3-Ethylsulfanyl-6,7-dihydro-5-oxa-1,2,4,7-tetraaza-dibenzo[a,c]cyclo-hepten-6-yl)-benzene-1,2-diol] | *
CCCSc1nnc2c(n1)OC(c1ccc(OCc3ccccc3)cc1)Nc1ccccc1-2 (stereo not shown) [F, 6-(4-Benzyloxy-phenyl)-3-propylsulfanyl-6,7-dihydro-5-oxa-1,2,4,7-tetraaza-dibenzo[a,c]cycloheptene] | **
CCCCSc1nnc2c(n1)OC(c1ccc(OC)cc1OC)Nc1ccccc1-2 (stereo not shown) [H, 3-Butylsulfanyl-6-(2,4-dimethoxy-phenyl)-6,7-dihydro-5-oxa-1,2,4,7-tetraaza-dibenzo[a,c]cycloheptene] | *
C=CCOc1ccc(C2Nc3ccccc3-c3nnc(SCCCC)nc3O2)cc1 (stereo not shown) [I, 6-(4-Allyloxy-phenyl)-3-butylsulfanyl-6,7-dihydro-5-oxa-1,2,4,7-tetraaza-dibenzo[a,c]cycloheptene] | **
